Measurements published in publication PMC8347512, “Synthesis and Biological Assessment of 4,1-Benzothiazepines with Neuroprotective Activity on the Ca^2+ Overload for the Treatment of Neurodegenerative Diseases and Stroke” (Molecules, 2021).
Where two headings read alike, the source gives them in different places.

Experiments:
SH-SY5Y cells [1] = experiment: Per se toxicity, MTT reduction, SH-SY5Y cells; assay type: cell-based
Procedure: (§1) The neuroblastoma SH-SY5Y cell line was obtained from the American Type Culture Collection (ATCC-CRL-2266), maintained and cultured in a 1:1 mixture of MEM and F12 media with 10% of fetal bovine serum (FBS), according to procedures previously described. For fluorescence-based [Ca^2+]c measurements, SH-SY5Y cells were seeded in clear-bottomed, 96-well black plates at a density of 40,000 cells/well. For viability assays, SH-SY5Y cells were seeded in 48-well plates at a density of 70,000 cells/well following the procedure recently reported. Rat cortical embryonic neurons were prepared from 19-day-old embryos directly seeded in the plate well treated with poly-D-lysine in neurobasal medium (Gibco 21103, Madrid, Spain) supplemented with 1% of L-glutamine (Sigma, G6392), 0.5% of penicillin/streptomycin and 0.1% of gentamincine. In fluorescence-based [Ca^2+]c measurement, neurons were seed at clear-bottomed, 96-well black plates at a density of 30,000 cells/well. For viability assays, the rat cortical neurons were also seeded in 48-well plates at a density of 40,000 cells/well. All the biological assays were conducted under sterile conditions.
The per se toxicity of the new synthetized compounds was assessed in both cell cultures by the method of MTT reduction. […] The viability of cultures was measured 20 h later, following a procedure recently described. […]

[2] = Solubility as observed during testing; assay type: physicochemical
VGCC = experiment: Blockade of 70 mM K+-evoked cytosolic Ca2+ elevation (Fluo-4/AM) in SH-SY5Y cells; assay type: cell-based
Procedure: as §1
(§2) To assess the blocking effect of compounds on the VGCC, we used SH-SY5Y cells charged with the Ca^2+-sensitive fluorescent dye Fluo-4/AM at 10 μM in Krebs-HEPES buffer, following a protocol recently described. Compounds were incubated at the desired concentrations (1, 3, 10, and 30 μM). The Ca^2+ entry was favored by addition of K^+ 70 mM to the extracellular medium. To evaluate the blocking effect of compounds on NMDA receptors, we have followed a protocol recently reported by our research group. Rat cortical neurons were charged with Fluo-4/AM at 3 μM in Krebs-HEPES buffer and compounds incubated at same concentrations than before. To stimulate Ca^2+ entry through the NMDA-sensitive glutamate receptors, NMDA was applied at 10 μM. In both cases, fluorescence oscillations as result of the [Ca^2+]c increases were real-time monitored in a multi-well fluorescence plate reader (FluoStar Optima, BMG, Germany), with excitation and emission wavelengths of 485 and 520 nm, respectively. Data were calculated as fluorescence increase (ΔF), according to the formula: ΔF=Fx−Fo /Fmax−Fmin where Fx is the maximum fluorescence obtained after Ca^2+ entry stimulation, F0 is the averaged fluorescence before, Fmax is the maximum fluorescence of the well obtained by treating cells with 5% Triton X-100, and the Fmin is the minimum fluorescence of well obtained by adding MnCl2 1 M to the previously Triton-lysed cells. The ΔF data were normalized respect to the control (ΔFc). Data are presented as percentage of blockade (100% ΔF) at the concentration of 10 μM, or as IC50, i.e., the concentration of compound capable of halving the ΔFc (%ΔF = 50).

NMDA receptors = experiment: Blockade of NMDA-evoked cytosolic Ca2+ elevation (Fluo-4/AM) in rat cortical neurons; assay type: cell-based; details: for IC50: rat cortical embryonic neurons, NMDA 10 μM, compounds 1 to 30 μM, read-out: IC50, NMDA-evoked [Ca2+]c elevation
Procedure: as §1
as §2, with “To evaluate the blocking effect of compounds on NMDA receptors, we have followed a protocol recently reported by our research group.” left out, “(ΔFc).” for “(ΔFc). Data are presented as percentage of blockade (100% ΔF) at the concentration of 10 μM, or as IC50, i.e., the concentration of compound capable of halving the ΔFc (%ΔF = 50).”

SH-SY5Y cells [3] = experiment: Neuroprotection against rotenone/oligomycin A (R/O), MTT, SH-SY5Y cells; assay type: cell-based; details: R/O 30/10 μM, compounds 10 μM
Procedure: as §1
(§3) The effect of compounds on the SH-SY5Y cells and rat cortical neurons viability compromised of different toxics was also evaluated by method of MTT reduction. Twenty-four hours after seeding, SH-SY5Y cells were preincubated with compounds at the concentration of 10 μM for 24 h. Afterwards, MEM/F12 medium was replaced by one fresh with 1% FBS, compounds at the same concentration, and rotenone/oligomycin A administered to media at the concentration of 30/10 μM, respectively. The cultures’ viability was measured 20 h later, following the MTT procedure recently described. As reference neuroprotective compound, melatonin 10 nM was selected. In the case of the rat cortical neurons, 7 days after seeding in 48-well plates, neurons were preincubated adding the compounds at a final concentration of 10 μM for 24 h. Then, toxic stimuli of 50 µM of glutamate was added to the wells. After 20 h, cell viability was measured by the MTT procedure. Here, the reference protective compound used was memantine (30 nM).

rat cortical neurons = experiment: Neuroprotection against glutamate 50 μM, MTT, rat cortical neurons; assay type: cell-based; details: compounds 10 μM
Procedure: as §1, §3

[4] = Blood-brain barrier permeation assay (PAMPA), porcine brain lipid; assay type: in vitro ADME; details: pH 7.4, threshold value of 40 nm/s, read-out: Pe, in vitro permeability (PAMPA-BBB)
Procedure: The parallel artificial membrane permeation assay (PAMPA) was used to predict the capacity of compounds to cross the blood–brain barrier (BBB) by passive diffusion, in a similar manner as previously described. Compounds were dissolved in 10 mM phosphate-buffered saline (PBS) buffer (pH 7.4) to the concentration of 100 µM. The filter membrane of the donor 96-well plate (Multiscreen IP sterile clear plate PDVF membrane, pore size […]) was impregnated with 4 µL of porcine brain lipid (PBL) (Avanti Polar Lipids, Inc., Alabaster, AL, USA) in dodecane (20 mg/mL), and after 5 min, 180 µL of each compound solution was added. The acceptor 96-well plate (Multiscreen, Millipore Corp. Burlington, MA, USA) was filled with 180 µL of PBS and 1% of DMSO. Finally, the donor filter plate was carefully put on the acceptor plate to form a “sandwich”, which was left undisturbed for 4 h at rt. After incubation, an UV plate reader determined the concentration of compounds in both acceptor and donor wells (150 µL/well) as the maximum absorption wavelength of each compound. Concentration of the compounds in the donor and acceptor well, and equilibrium concentration were calculated from the standard curve and expressed as the permeability (Pe), according to the following formula: logPe=logC×−ln1−drugacceptor/drugequilibrium whereC=Vdonor×Vaceptor/Vdonor+Vaceptor×Area×Time)
Results are expressed as mean ± SEM of three different experiments in duplicate.

Row | Structure (SMILES) | Effect on cell viability of SH-SY5Y cells (per se toxicity) (SH-SY5Y cells [1]; compounds at 1, 3, 10 and 30 μM) | Solubility (observation) [2] | melting point [°C] | Effect on cell viability of SH-SY5Y cells at 30 μM (SH-SY5Y cells [1]; 30 μM) | Decrease of K+-evoked Ca2+ signaling compared with nifedipine (VGCC; compounds 10 μM, nifedipine 10 μM) | IC50 (VGCC; read-out: IC50, concentration halving the 70 mM K+-evoked Ca2+ elevation, compounds 1 to 30 μM, Fluo-4/AM) [µM] | IC50 (NMDA receptors) [µM] | Mitigation of the NMDA-elicited Ca2+ increase compared with memantine (NMDA receptors; rat cortical neurons, compounds 10 μM, memantine 10 μM) | Protection against R/O-induced oxidative stress (in words) (SH-SY5Y cells [3]) | Protection against glutamate-elicited neurotoxicity (in words) (rat cortical neurons) | Papp at 4 h, 100 µM [4] [×10⁻⁶ cm/s] | IC50 (VGCC; compounds 1 to 30 μM, Fluo-4/AM, read-out: IC50, concentration halving the 70 mM K+-evoked Ca2+ elevation) [µM]
1 | CC(C)c1ccc(C2SCC(=O)Nc3ccc(Cl)cc32)cc1 (stereo not drawn) [compound 12, 7-Chloro-5-(4′-isopropylphenyl)-3,5-dihydro-4,1-benzothiazepin-2-(1H)-one] | did not produce a dramatic loss of cell viability | some solubility problems were appreciated | 240 to 243 |  |  |  |  |  |  |  |  | 
2 | CC(C)c1cccc(C2SCC(=O)Nc3ccc(Cl)cc32)c1 (stereo not drawn) [compound 13, 7-Chloro-5-(3′-isopropylphenyl)-3,5-dihydro-4,1-benzothiazepin-2-(1H)-one] |  |  | 218 to 220 | remarkable cytotoxic profile |  |  |  |  |  |  |  | 
3 | CC(C)c1ccccc1C1SCC(=O)Nc2ccc(N(C)C)cc21 (stereo not drawn) [compound 21, 7-Dimethylamino-5-(2′-isopropylphenyl)-3,5-dihydro-4,1-benzothiazepin-2-(1H)-one] |  |  | 108 to 112 |  | in a similar manner or even better than the reference compound nifedipine | 5.4 | 6.2 | noticeable mitigation of the NMDA-elicited Ca^2+ increase, even higher than that exerted by the reference compound memantine | clear trend to protect against oxidative stress | statistically significant dissipation of the glutamate-elicited neurotoxicity | > 4 | 
4 | O=C1CSC(c2ccccc2)c2cnccc2N1 (stereo not drawn) [compound 38, 5-Phenyl-3,5-dihydropyrido[4,3-e][1,4]thiazepin-2-(1H)-one] |  |  | 138 to 143 |  |  |  | > 30 |  | neuroprotective profile against oxidative stress | nicely recovered cell viability |  | 28.5
